{"source": "patent US20260217701A1", "about": "“SELECTIVE BET INHIBITORS AND USES THEREOF” (Tay Therapeutics Limited, priority 2022, published 2026)", "key": {"[1]": {"assay": "Pharmacokinetics of Compound A in the CIA study (groups 8 and 9)", "type": "in vivo", "details": "Lewis rats", "protocol": "(§1) Blood samples were collected from animals in group 8 on Day 0, and blood samples were collected from group 9 on Day 20. Blood samples from group 8 and group 9 were collected at 0.25, 0.5, 1, 2, 4, 8, 10, 12, 13, and 24-hours following morning administration of their first dose of the compound. The second dose of the compound was administered after the 8-hour collection timepoint. All blood samples were collected at the eye socket and put into tubes containing EDTA-K2 as an anticoagulant and centrifuged at 4° C. at 4,000 g for 5 minutes. Plasma was transferred to a separate tube and stored at −75+15° C. for PK analysis. Pharmacokinetic analyses for Compound A in Lewis rats were performed as described in Experimental Method B.\nas §1, with “−75±15°” for “−75+15°”, “Pharmacokinetic analyses for Compound A in Lewis rats were performed as described in Experimental Method B.” left out"}, "[2]": {"system": "IL-22, IFNγ, TNF, IL-17A, IL-12/IL-23p40", "assay": "EAE study: serum cytokine analysis (Luminex)", "type": "in vivo, C57BI/6 mice", "protocol": "Experimental Method H: EAE in animals treated with a BET inhibitor and vehicle. Animals were assigned to the groups outlined in Table 38.\nCompound A may be formulated as illustrated in Experimental Method A (see Table 2E.). A 40 mg/mL stock solution of Compound A in DMSO was prepared and aliquots stored at −20° C. On each day of preparation an e.g., 0.75 mL aliquot of thawed stock was diluted with an equal volume of DMSO. The remaining vehicle components were added to provide the highest dose and then diluted with vehicle to provide lower doses. A 30 mg/mL stock solution of FTY720 in ethanol was prepared and stored at −20° C. Daily, the stock solution was diluted with room temperature water to a final dosing concentration of 0.6 mg/mL. Formulated Compound A, FTY720 and vehicle were each at room temperature for dosing.\nFemale C57BI/6 mice (9 weeks old) were acclimated for seven days prior to study initiation. On Day-1, animals were assigned to groups in a balanced manner to achieve similar average weights across the different groups. Chronic EAE was induced in female C57BI/6 mice following immunization with an emulsion of MOG35-55/CFA on Day 0, followed by an injection of pertussis toxin two hours after the initial immunization. On Day 1, a second injection of pertussis toxin was administered 24 hours after the initial immunization. Mice were injected subcutaneously at two sites on the back with the MOG35-55/CFA emulsion (Hooke Kit™ MOG35-55/CFA Emulsion PTX). The first injection site was located approximately 1 cm caudal of the neckline (upper back), and the second injection site was approximately 2 cm cranial of the base of the tail (lower back). The injection volume was 0.1 mL for each injection. The pertussis toxin was administered at the described times through intraperitoneal injection at a concentration of 85 ng/dose for both injections.\nOn Day 28, all surviving mice except those in the FTY720 group had blood collected via retro-orbital sinus into serum separator tubes. Serum was isolated, frozen on dry ice, and stored at −80° C. for cytokine analysis. Cytokine analysis was performed using Luminex in serum samples, and the cytokines IL-22, IFNγ, TNF, IL-17A, IL-12/IL-23p40 were assessed."}}, "note": "Marks after values point to notes of the source that are not given here."}
{"smiles": "Cn1cc(-c2ccccc2)c(-c2cn(C)c(=O)c3[nH]c(-c4cnn(C(F)(F)F)c4)cc23)cc1=O", "note": "[Compound A, 6-methyl-4-(1-methyl-2-oxo-5-phenyl-1,2-dihydropyridin-4-yl)-2-(1-(trifluoromethyl)-1H-pyrazol-4-yl)-1,6-dihydro-7H-pyrrolo[2,3-c]pyridin-7-one]", "values": [{"measurement": "period of increasing plasma concentration after oral administration", "setting": "[1]", "result": "approximately the first four hours"}, {"measurement": "IFNγ Mean Concentration (pg/mL) and (SEM)", "setting": "[2]; Compound A 1 mg/kg, Day 28", "result": "1.9 (0.8) pg/mL"}, {"measurement": "IL-12/IL-23p40 Mean Concentration (pg/mL) and (SEM)", "setting": "[2]; Compound A 1 mg/kg, Day 28", "result": "34.7 (4.8)* pg/mL"}, {"measurement": "IL-17A Mean Concentration (pg/mL) and (SEM)", "setting": "[2]; Compound A 1 mg/kg, Day 28", "result": "0.5 (0.3) pg/mL"}, {"measurement": "IL-22 Mean Concentration (pg/mL) and (SEM)", "setting": "[2]; Compound A 1 mg/kg, Day 28", "result": "3.5 (1.4) pg/mL"}, {"measurement": "TNF Mean Concentration (pg/mL) and (SEM)", "setting": "[2]; Compound A 1 mg/kg, Day 28", "result": "0.8 (0.4) pg/mL"}, {"measurement": "IFNγ Mean Concentration (pg/mL) and (SEM)", "setting": "[2]; Compound A 3 mg/kg, Day 28", "result": "1.8 (0.4)* pg/mL"}, {"measurement": "IL-12/IL-23p40 Mean Concentration (pg/mL) and (SEM)", "setting": "[2]; Compound A 3 mg/kg, Day 28", "result": "27.7 (4.9)** pg/mL"}, {"measurement": "IL-17A Mean Concentration (pg/mL) and (SEM)", "setting": "[2]; Compound A 3 mg/kg, Day 28", "result": "1.6 (0.9) pg/mL"}, {"measurement": "IL-22 Mean Concentration (pg/mL) and (SEM)", "setting": "[2]; Compound A 3 mg/kg, Day 28", "result": "6.1 (3.0) pg/mL"}, {"measurement": "TNF Mean Concentration (pg/mL) and (SEM)", "setting": "[2]; Compound A 3 mg/kg, Day 28", "result": "1.4 (0.4) pg/mL"}, {"measurement": "IFNγ Mean Concentration (pg/mL) and (SEM)", "setting": "[2]; Compound A 10 mg/kg, Day 28", "result": "0.6 (0.1)*** pg/mL"}, {"measurement": "IL-12/IL-23p40 Mean Concentration (pg/mL) and (SEM)", "setting": "[2]; Compound A 10 mg/kg, Day 28", "result": "17.4 (1.5)*** pg/mL"}, {"measurement": "IL-17A Mean Concentration (pg/mL) and (SEM)", "setting": "[2]; Compound A 10 mg/kg, Day 28", "result": "0.4 (0.3) pg/mL"}, {"measurement": "IL-22 Mean Concentration (pg/mL) and (SEM)", "setting": "[2]; Compound A 10 mg/kg, Day 28", "result": "3.0 (0.7) pg/mL"}, {"measurement": "TNF Mean Concentration (pg/mL) and (SEM)", "setting": "[2]; Compound A 10 mg/kg, Day 28", "result": "0.4 (0.1) pg/mL"}, {"measurement": "Concentration of IL-22, TNF, and IL-17A relative to vehicle", "setting": "[2]; Day 28", "result": "nor were significant changes measured"}, {"measurement": "Concentration of IL-12/IL23p40", "setting": "[2]; Day 28, 1 mg/kg, 3 mg/kg, and 10 mg/kg", "result": "dose dependent significant decreases"}, {"measurement": "IFNγ concentrations", "setting": "[2]; Day 28, 3 mg/kg and 10 mg/kg", "result": "dose dependent significant decrease"}]}
